Measured values: patent US7189720B2 (H. Lundbeck A/S, priority 1999, dated 2007)

The compounds below were run against T1, human Y5 receptor (Homo sapiens, UniProt Q15761) (assay: Radioligand binding to membranes, cloned human Y5 receptor). Details: Table 1; read-out: Ki (nM) hNPY-5.
T1 construct: expressed in transfected cells; host or cells: mouse fibroblast LM(tk-) cells, e.g. L-hY5-7 (ATCC CRL-11995)
T1 sequence (Q15761 1-445): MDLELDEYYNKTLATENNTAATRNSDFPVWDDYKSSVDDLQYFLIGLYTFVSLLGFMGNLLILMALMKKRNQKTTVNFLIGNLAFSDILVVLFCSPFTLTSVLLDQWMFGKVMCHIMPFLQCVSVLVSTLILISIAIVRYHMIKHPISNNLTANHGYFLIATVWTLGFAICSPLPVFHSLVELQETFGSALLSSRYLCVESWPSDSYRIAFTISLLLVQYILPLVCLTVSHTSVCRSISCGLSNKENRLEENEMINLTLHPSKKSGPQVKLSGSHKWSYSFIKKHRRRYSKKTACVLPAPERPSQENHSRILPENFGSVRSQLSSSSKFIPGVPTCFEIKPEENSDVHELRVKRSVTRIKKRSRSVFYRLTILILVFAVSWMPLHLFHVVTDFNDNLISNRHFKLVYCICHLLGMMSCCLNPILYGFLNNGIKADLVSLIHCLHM
For `CC(C)Nc1nc(NCC2CCC(CNS(=O)(=O)c3cccc4ccccc34)CC2)nc(NC2CC2)n1` (stereo not shown) [Example 8, N1-[4-([4-(cyclopropylamino)-6-(isopropylamino)-1,3,5-triazin-2-yl]aminomethyl)cyclohexyl]methyl-1-naphthalenesulfonamide], the Ki was 9 nM. For `CCCCNc1nc(NCC2CCC(CNS(=O)(=O)c3cccc4ccccc34)CC2)nc(NC(C)C)n1` (stereo not shown) [Example 6, N1-[4-([4-(butylamino)-6-(isopropylamino)-1,3,5-triazin-2-yl]aminomethyl)cyclohexyl]methyl-1-naphthalenesulfonamide], the Ki was 22 nM. `CC(C)Nc1nc(NCC2CCC(CNS(=O)(=O)c3cccc4ccccc34)CC2)nc(NC2CCC2)n1` (stereo not shown) [Example 7, N1-[4-([4-(cyclobutylamino)-6-(isopropylamino)-1,3,5-triazin-2-yl]aminomethyl)cyclohexyl]methyl-1-naphthalenesulfonamide] gave a Ki of 22 nM. `CC(C)Nc1nc(NCC2CCC(CNS(=O)(=O)c3cccc4ccccc34)CC2)nc(N2CCCCC2)n1` (stereo not shown) [Example 22, N1-{[4-({[4-(isopropylamino)-6-piperidino-1,3,5-triazin-2-yl]amino}methyl)cyclohexyl]methyl}-1-naphthalenesulfonamide] showed a Ki of 38 nM. `CC(C)Nc1nc(NCC2CCC(CNS(=O)(=O)c3cccc4ccccc34)CC2)nc(N2CCCCC2C)n1` (stereo not shown) [Example 23, N1-[4-([4-(isopropylamino)-6-(2-methylpiperidino)-1,3,5-triazin-2-yl]aminomethyl)cyclohexyl]methyl-1-naphthalenesulfonamide] gave a Ki of 68 nM. For `CC(C)Nc1nc(NCC2CCC(CNS(=O)(=O)c3cccc4ccccc34)CC2)nc(N2CCCC2)n1` (stereo not shown) [Example 20, N1-[4-([4-(isopropylamino)-6-tetrahydro-1H-1-pyrrolyl-1,3,5-triazin-2-yl]aminomethyl)cyclohexyl]methyl-1-naphthalenesulfonamide], the Ki was 19 nM. With `CCCNc1nc(NCC2CCC(CNS(=O)(=O)c3cccc4ccccc34)CC2)nc(NC(C)C)n1` (stereo not shown) [Example 5, N1-[4-([4-(isopropylamino)-6-(propylamino)-1,3,5-triazin-2-yl]aminomethyl)cyclohexyl]methyl-1-naphthalenesulfonamide] the Ki was 18 nM.

Same assay, conditions: Table 2; read-out: Ki (nM) hNPY-5
In the case of `CCNc1nc(NCC)nc(NCC2CCC(CNS(=O)(=O)c3ccc(OC)cc3)CC2)n1` (stereo not shown) [Example 35, N1-[4-([4,6-di(ethylamino)-1,3,5-triazin-2-yl]aminomethyl)cyclohexyl]methyl-4-methoxy-1-benzenesulfonamide], the Ki is reported as 82 nM. `CCNc1nc(NCC)nc(NCC2CCC(CNS(=O)(=O)c3cn(C)cn3)CC2)n1` (stereo not shown) [Example 38, N4-[4-([4,6-di(ethylamino)-1,3,5-triazin-2-yl]aminomethyl)cyclohexyl]methyl-1-methyl-1H-4-imidazolesulfonamide] gave a Ki of 313 nM. Compound `CCNc1nc(NCC)nc(NCC2CCC(CNS(=O)(=O)c3ccc(C(C)(C)C)cc3)CC2)n1` (stereo not shown) [Example 29, N1-[4-([4,6-di(ethylamino)-1,3,5-triazin-2-yl]aminomethyl)cyclohexyl]methyl-4-(tert-butyl)-1-benzenesulfonamide] has a Ki of 50 nM. `CCNc1nc(NCC)nc(NCC2CCC(CNS(C)(=O)=O)CC2)n1` (stereo not shown) [Example 42, N-[4-([4,6-di(ethylamino)-1,3,5-triazin-2-yl]aminomethyl)cyclohexyl]methylmethanesulfonamide] showed a Ki of 3070 nM.

Same assay, conditions: Table 3; read-out: Ki (nM) hNPY-5
With `CC(C)Nc1nc(NCC2CCC(CNS(=O)(=O)N(C)C)CC2)nc(NC2CC2)n1` (stereo not shown) [Example 48, N′-[4-([4-(cyclopropylamino)-6-(isopropylamino)-1,3,5-triazin-2-yl]aminomethyl)cyclohexyl]methyl-N,N-dimethylsulfamide] the Ki was 192 nM. `O=S(=O)(NCC1CCC(CNc2nc(NC3CC3)nc(N3CCCC3)n2)CC1)c1ccc(F)cc1` (stereo not shown) [Example 52, N1-[4-([4-(cyclopropylamino)-6-tetrahydro-1H-1-pyrrolyl-1,3,5-triazin-2-yl]aminomethyl)cyclohexyl]methyl-4-fluoro-1-benzenesulfonamide] showed a Ki of 101 nM. `CC(C)Nc1nc(NCC2CCC(CNS(=O)(=O)N3CCOCC3)CC2)nc(N2CCOCC2)n1` (stereo not shown) [Example 44, N4-[4-([4-(isopropylamino)-6-morpholino-1,3,5-triazin-2-yl]aminomethyl)cyclohexyl]methyl-4-morpholinesulfonamide] gave a Ki of 295 nM.

Same assay, conditions: Table 5; read-out: Ki, nM hNPY-5
`Cc1noc(C)c1S(=O)(=O)N[C@H]1CC[C@H](CNc2nc(-c3ccccn3)cs2)CC1` [Example 85, trans-2-(4-(3,5-Dimethyl-4-isoxazolyl)sulfonylamino)-cyclohexylmethylamino-4-(2-pyridyl)thiazole dihydrogen chloride] was tested, and the Ki was 3.8 nM. In the case of `CN(C)S(=O)(=O)NCCCCCNc1nc(-c2cccs2)cs1` [Example 91, N,N-Dimethyl-N′-(5-{[4-(2-thienyl)-1,3-thiazol-2-yl]amino}-pentyl)sulfamide], the Ki is reported as 12.4 nM. Compound `COc1ccc(C)cc1S(=O)(=O)N[C@H]1CC[C@H](CNc2nc(-c3ccncc3)cs2)CC1` [Example 87, trans-2-(4-(2-Methoxy-5-methylphenyl)sulfonylamino)-cyclohexylmethylamino-4-(4-pyridyl)thiazole dihydrogen chloride] has a Ki of 17 nM. `O=S(=O)(N[C@H]1CC[C@H](CNc2nc(-c3ccccn3)cs2)CC1)c1ccccc1F` [Example 84, trans-2-(4-(2-Fluorophenyl)sulfonylamino)cyclohexylmethyl-amino-4-(2-pyridyl)thiazole dihydrogen chloride] gave a Ki of 8.4 nM.

Same assay, conditions: Table 6; read-out: Ki, nM hNPY-5
`O=S(=O)(NCCCCCCNc1nc2c(s1)CCSc1ccccc1-2)c1c(Cl)cccc1Cl` [Example 146, N1-[6-(4,5-Dihydrobenzo[2,3]thiepino[4,5-d][1,3]thiazol-2-ylamino)hexyl]-2,6-dichloro-1-benzenesulfonamide] showed a Ki of 25 nM. With `COc1ccc(C)cc1S(=O)(=O)NC[C@H]1CC[C@H](Nc2nc3c(s2)CCSc2ccccc2-3)CC1` [Example 119, N1-{[4-(4,5-Dihydrobenzo[2,3]thiepino[4,5-d][1,3]thiazol-2-ylamino)cyclohexyl]methyl}-2-methoxy-5-methyl-1-benzenesulfonamide] the Ki was 14.1 nM. Compound `O=[N+]([O-])c1ccccc1S(=O)(=O)NCCCCCCNc1nc2c(s1)CCSc1ccccc1-2` [Example 116, N1-[6-(4,5-Dihydrobenzo[2,3]thiepino[4,5-d][1,3]thiazol-2-ylamino)hexyl]-2-nitro-1-benzenesulfonamide] has a Ki of 7.1 nM. With `O=S(=O)(NC[C@H]1CC[C@H](Nc2nc3c(s2)CCSc2ccccc2-3)CC1)c1ccc(-c2ccon2)s1` [Example 126, N2-{[4-(4,5-Dihydrobenzo[2,3]thiepino[4,5-d][1,3]thiazol-2-ylamino)cyclohexyl]methyl}-5-(3-isoxazolyl)-2-thiophenesulfonamide] the Ki was 34 nM. Compound `O=C(NCCCCCNc1nc2c(s1)CCSc1ccccc1-2)c1ccc2ccccc2c1` [Example 142, N2-[5-(4,5-Dihydrobenzo[2,3]thiepino[4,5-d][1,3]thiazol-2-ylamino)pentyl]-2-naphthamide] has a Ki of 100 nM. In the case of `O=S(=O)(NCCCCCCNc1nc2c(s1)CCSc1ccccc1-2)c1ccc(-c2ccon2)s1` [Example 129, N2-[6-(4,5-Dihydrobenzo[2,3]thiepino[4,5-d][1,3]thiazol-2-ylamino)hexyl]-5-(3-isoxazolyl)-2-thiophenesulfonamide], the Ki is reported as 29 nM. In the case of `COCCN(C=O)[C@H]1CC[C@H](CNc2nc3c(s2)CCSc2ccccc2-3)CC1` [Example 163, trans-N-4-[(4,5-dihydrobenzo[2,3]thiepino[4,5-d][1,3]thiazol-2-ylamino)methyl]cyclohexyl-N-(2-methoxyethyl)formamide], the Ki is reported as 12.3 nM. For `Cc1ccc(S(=O)(=O)NC[C@H]2CC[C@H](Nc3nc4c(s3)CCSc3ccccc3-4)CC2)cc1` [Example 156, N1-{[4-(4,5-Dihydrobenzo[2,3]thiepino[4,5-d][1,3]thiazol-2-ylamino)cyclohexyl]methyl}-4-methyl-1-benzenesulfonamide], the Ki was 6.6 nM. Work on `O=C(NCCCCNc1nc2c(s1)CCSc1ccccc1-2)c1cccc2ccccc12` [Example 140, N1-[4-(4,5-Dihydrobenzo[2,3]thiepino[4,5-d][1,3]thiazol-2-ylamino)butyl]-1-naphthamide] yielded a Ki of 123 nM. `CN(C)c1cccc2c(S(=O)(=O)NCCCCCCNc3nc4c(s3)CCSc3ccccc3-4)cccc12` [Example 115, N1-[6-(4,5-Dihydrobenzo[2,3]thiepino[4,5-d][1,3]thiazol-2-ylamino)hexyl]-5-(dimethylamino)-1-naphthalenesulfonamide] showed a Ki of 71 nM. Compound `O=S(=O)(NCCCCCCNc1nc2c(s1)CCSc1ccccc1-2)c1ccc(F)cc1F` [Example 145, N1-[6-(4,5-Dihydrobenzo[2,3]thiepino[4,5-d][1,3]thiazol-2-ylamino)hexyl]-2,4-difluoro-1-benzenesulfonamide] has a Ki of 4.1 nM. With `O=S(=O)(Cc1ccccc1)NCCCCCCNc1nc2c(s1)CCSc1ccccc1-2` [Example 148, N-[6-(4,5-Dihydrobenzo[2,3]thiepino[4,5-d][1,3]thiazol-2-ylamino)hexyl]phenylmethane-sulfonamide] the Ki was 10.5 nM. With `Cn1cnc(S(=O)(=O)NCCCCCNc2nc3c(s2)CCSc2ccccc2-3)c1` [Example 111, N4-[5-(4,5-Dihydrobenzo[2,3]thiepino[4,5-d][1,3]thiazol-2-ylamino)pentyl]-1-methyl-1H-4-imidazolesulfonamide] the Ki was 17.2 nM.
